Measured values from patent US20230234942A1, “COMPOUNDS FOR TREATING HUNTINGTON'S DISEASE” (PTC Therapeutics, Inc., priority 2020, published 2023).

system: Endogenous Huntingtin Protein; experiment: Endogenous Huntingtin Protein Assay (ELISA-based MSD electrochemiluminescence); format: cell-based; conditions: Table 2; MSD plates coated with MW1 (expanded polyglutamine) or MAB2166 capture antibody; "inactive" = result above the detection limit of the assay
Method in brief: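 Endogenous huntingtin measured on MSD plates coated with MW1 (polyglutamine-expanded) or MAB2166 capture antibody; lysates bound overnight at 4 °C. Signal developed with #56565 rabbit monoclonal and goat anti-rabbit SULFO-TAG (0.25 µg/mL, 1 h RT each), electrochemiluminescence read on SI 6000.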

| IC50 [nM] | IC50 (nM) | SMILES |
| --- | --- | --- |
| 480 |  | Cc1cnc(-c2ccc(-c3cnc(N4CCN[C@@H](C(C)C)C4)nn3)c(O)c2)cn1 [Cpd 145, 5-(5-methylpyrazin-2-yl)-2-{3-[(3S)-3-(propan-2-yl)piperazin-1-yl]-1,2,4-triazin-6-yl}phenol] |
| 4.5 |  | CC(C)(O)C1CN(c2ncc(-c3ccc(-c4c[nH]nc4F)cc3O)nn2)CCN1 (centres unmarked) [Cpd 4, 5-(3-fluoro-1H-pyrazol-4-yl)-2-{3-[3-(2-hydroxypropan-2-yl)piperazin-1-yl]-1,2,4-triazin-6-yl}phenol] |
| 292 |  | CC(C)[C@H]1CN(c2ncc(-c3ccc(-c4cnsn4)cc3O)nn2)CCN1 [Cpd 265, 2-{3-[(3S)-3-(propan-2-yl)piperazin-1-yl]-1,2,4-triazin-6-yl}-5-(1,2,5-thiadiazol-3-yl)phenol] |
| 147 |  | Cc1cnc(-c2ccc(-c3cnc(N4CCN[C@@H](C5CC5)C4)nn3)c(O)c2)o1 [Cpd 232, 2-{3-[(3S)-3-cyclopropylpiperazin-1-yl]-1,2,4-triazin-6-yl}-5-(5-methyl-1,3-oxazol-2-yl)phenol] |
| 214 |  | CC(C)[C@H]1CN(c2ncc(-c3ccc(-c4ccc5nsnc5c4)cc3O)nn2)CCN1 [Cpd 263, 5-(2,1,3-benzothiadiazol-5-yl)-2-{3-[(3S)-3-(propan-2-yl)piperazin-1-yl]-1,2,4-triazin-6-yl]phenol] |
| 63.7 |  | [2H]C([2H])([2H])n1cc(-c2ccc(-c3cnc(N4CCNC(CC)C4)nn3)c(O)c2)cn1 (centres unmarked) [Cpd 39, 2-[3-(3-ethylpiperazin-1-yl)-1,2,4-triazin-6-yl]-5-[1-(^2H3)methyl-1H-pyrazol-4-yl]phenol] |
| 975 |  | Oc1cc(-c2cc(N3CCC3)ncn2)ccc1-c1cnc(N2CCNC(C3CC3)C2)nn1 (racemic) [Cpd 210, 5-[6-(azetidin-1-yl)pyrimidin-4-yl]-2-{3-[(3RS)-3-cyclopropylpiperazin-1-yl]-1,2,4-triazin-6-yl}phenol] |
| 2.2 |  | CCC1CN(c2ncc(-c3ccc(-c4cc(F)c5nc(C)cn5c4)cc3O)nn2)CCN1 (centres unmarked) [Cpd 68, 2-[3-(3-ethylpiperazin-1-yl)-1,2,4-triazin-6-yl]-5-(8-fluoro-2-methylimidazo[1,2-a]pyridin-6-yl)phenol] |
| 28.4 |  | Cc1nc(-c2ccc(-c3cnc(N4CCN[C@@H](C5CC5)C4)nn3)c(O)c2)cs1 [Cpd 246, 2-{3-[(3S)-3-cyclopropylpiperazin-1-yl]-1,2,4-triazin-6-yl}-5-(2-methyl-1,3-thiazol-4-yl)phenol] |
| 232 |  | C[C@H]1CN(c2ncc(-c3ccc(-c4cn[nH]c4)cc3O)nn2)C[C@@H](C2CC2)N1 [Cpd 224, 2-{3-[(3R,5S)-3-cyclopropyl-5-methylpiperazin-1-yl]-1,2,4-triazin-6-yl]-5-(1H-pyrazol-4-yl)phenol] |
| 461 |  | CC(C)[C@H]1CN(c2ncc(-c3ccc(-c4ncc(Cl)s4)cc3O)nn2)CCN1 [Cpd 189, 5-(5-chloro-1,3-thiazol-2-yl)-2-{3-[(3S)-3-(propan-2-yl)piperazin-1-yl]-1,2,4-triazin-6-yl}phenol] |
| 13.4 |  | C[C@@H]1CN(c2ncc(-c3ccc(-c4cn[nH]c4)cc3O)nn2)C[C@H](C2CC2)N1 [Cpd 225, 2-{3-[(3S,5R)-3-cyclopropyl-5-methylpiperazin-1-yl]-1,2,4-triazin-6-yl}-5-(1H-pyrazol-4-yl)phenol] |
| 7.6 |  | Cc1cn2cc(-c3ccc(-c4cnc(N5CCN[C@@H](C(C)C)C5)nn4)c(O)c3)cc(C)c2n1 [Cpd 131, 5-(2,8-dimethylimidazo[1,2-a]pyridin-6-yl)-2-{3-[(3S)-3-(propan-2-yl)piperazin-1-yl]-1,2,4-triazin-6-yl}phenol] |
|  | inactive | Oc1cc(-c2cn[nH]c2)ccc1-c1cnc(N2CCN(C3CC3)CC2)nn1 [Cpd 63, 2-[3-(4-cyclopropylpiperazin-1-yl)-1,2,4-triazin-6-yl]-5-(1H-pyrazol-4-yl)phenol] |
| 41.4 |  | CCC(C)C1CN(c2ncc(-c3ccc(-c4cn[nH]c4)cc3O)nn2)CCN1 (centres unmarked) [Cpd 33, 2-{3-[3-(butan-2-yl)piperazin-1-yl]-1,2,4-triazin-6-yl}-5-(1H-pyrazol-4-yl)phenol] |
| 789 |  | Cc1ccc(-c2ccc(-c3cnc(N4CCN[C@@H](C(C)C)C4)nn3)c(O)c2)cn1 [Cpd 160, 5-(6-methylpyridin-3-yl)-2-{3-[(3S)-3-(propan-2-yl)piperazin-1-yl]-1,2,4-triazin-6-yl]phenol] |
| 14.6 |  | Cc1cn2nc(-c3ccc(-c4cnc(N5CCN(C)CC5)nn4)c(O)c3)cc(C)c2n1 [Cpd 104, 5-(2,8-dimethylimidazo[1,2-b]pyridazin-6-yl)-2-[3-(4-methylpiperazin-1-yl)-1,2,4-triazin-6-yl]phenol] |
| 204 |  | CC(C)[C@H]1CN(c2ncc(-c3ccc(-c4ncccn4)cc3O)nn2)CCN1 [Cpd 151, 2-{3-[(3S)-3-(propan-2-yl)piperazin-1-yl]-1,2,4-triazin-6-yl}-5-(pyrimidin-2-yl)phenol] |

| IC50 [nM] | IC50 (nM) | SMILES |
| --- | --- | --- |
| 18 |  | Cc1cn2cc(-c3ccc(-c4cnc(N5CCN[C@@H](C(C)C)C5)nn4)c(O)c3)cc(C(F)(F)F)c2n1 [Cpd 139, 5-[2-methyl-8-(trilluoromethyl)imidazo[1,2-a]pyridin-6-yl]-2-{3-[(3S)-3-(propan-2-yl)piperazin-1-yl]-1,2,4-triazin-6-yl}phenol] |
| 74.9 |  | C[C@@H]1CN(c2ncc(-c3ccc(-c4c[nH]nc4F)cc3O)nn2)C[C@H](C(C)(C)C)N1 [Cpd 248, 2-{3-[(3S,5R)-3-tert-butyl-5-methylpiperazin-1-yl]-1,2,4-triazin-6-yl]-5-(3-fluoro-1H-pyrazol-4-yl)phenol] |
| 131 |  | CC(C)[C@H]1CN(c2ncc(-c3ccc(-c4cnn5c4OCCC5)cc3O)nn2)CCN1 [Cpd 282, 5-(6,7-dihydro-5H-pyrazolo[5,1-b][1,3]oxazin-3-yl)-2-{3-[(3S)-3-(propan-2-yl)piperazin-1-yl]-1,2,4-triazin-6-yl}phenol] |
| 9.8 |  | C[C@@H]1CN(c2ncc(-c3ccc(-c4cnc5nn(C)cc5c4)cc3O)nn2)C[C@H](C)N1 [Cpd 97, 2-{3-[(3R,5S)-3,5-dimethylpiperazin-1-yl]-1,2,4-triazin-6-yl}-5-(2-methyl-2H-pyrazolo[3,4-b]pyridin-5-yl)phenol] |
| 5.2 |  | C[C@@H]1CN(c2ncc(-c3ccc(-c4cc(F)c5nn(C)cc5c4)cc3O)nn2)C[C@H](C)N1 [Cpd 79, 2-{3-[(3R,5S)-3,5-dimethylpiperazin-1-yl]-1,2,4-triazin-6-yl}-5-(7-fluoro-2-methyl-2H-indazol-5-yl)phenol] |
| 1.7 |  | Cn1nc2cc(-c3ccc(-c4cnc(N5CCN[C@@H](C6CC6)C5)nn4)c(O)c3)cnc2n1 [Cpd 168, 2-{3-[(3S)-3-cyclopropylpiperazin-1-yl]-1,2,4-triazin-6-yl}-5-(2-methyl-2H-[1,2,3]triazolo[4,5-b]pyridin-6-yl)phenol] |
| 10 |  | COc1cc(-c2ccc(-c3cnc(N4CCN[C@@H](C(C)C)C4)nn3)c(O)c2)nc(OC)n1 [Cpd 207, 5-(2,6-dimethoxypyrimidin-4-yl)-2-{3-[(3S)-3-(propan-2-yl)piperazin-1-yl]-1,2,4-triazin-6-yl}phenol] |
| 9.5 |  | [2H]C([2H])([2H])Oc1cc(-c2ccc(-c3cnc(N4CCN[C@@H](C(C)C)C4)nn3)c(O)c2)ncn1 [Cpd 10, 5-{6-[(^2H3)methyloxy]pyrimidin-4-yl}-2-{3-[(3S)-3-(propan-2-yl)piperazin-1-yl]-1,2,4-triazin-6-yl}phenol] |
| 4.3 |  | CCC1CN(c2ncc(-c3ccc(-c4cc(F)c5nn(C)cc5c4)cc3O)nn2)CCN1 (centres unmarked) [Cpd 74, 2-[3-(3-ethylpiperazin-1-yl)-1,2,4-triazin-6-yl]-5-(7-fluoro-2-methyl-2H-indazol-5-yl)phenol] |
| 18.8 |  | Cc1cnn(-c2ccc(-c3cnc(N4CCN[C@H](C5CC5)C4)nn3)c(O)c2)n1 [Cpd 183, 2-{3-[(3R)-3-cyclopropylpiperazin-1-yl]-1,2,4-triazin-6-yl}-5-(4-methyl-2H-1,2,3-triazol-2-yl)phenol] |
| 21.5 |  | Oc1cc(-c2ncns2)ccc1-c1cnc(N2CCN[C@@H](C3CC3)C2)nn1 [Cpd 170, 2-{3-[(3S)-3-cyclopropylpiperazin-1-yl]-1,2,4-triazin-6-yl}-5-(1,2,4-thiadiazol-5-yl)phenol] |
| 198 |  | CC1([C@@H]2CN(c3ncc(-c4ccc(-c5cnn6c5CCC6)cc4O)nn3)CCN2)CC1 [Cpd 281, 5-(5,6-dihydro-4H-pyrrolo[1,2-b]pyrazol-3-yl)-2-{3-[(3R)-3-(1-methylcyclopropyl)piperazin-1-yl]-1,2,4-triazin-6-yl}phenol] |
| 88.3 |  | COc1cc(-c2ccc(-c3cnc(N4C[C@@H](C5CC5)N[C@@H](C)C4)nn3)c(O)c2)nc(OC)n1 [Cpd 220, 2-{3-[(3R,5S)-3-cyclopropyl-5-methylpiperazin-1-yl]-1,2,4-triazin-6-yl}-5-(2,6-dimethoxypyrimidin-4-yl)phenol] |
| 9.1 |  | Cc1ncc2cc(-c3ccc(-c4cnc(N5CCN[C@@H](C6CC6)C5)nn4)c(O)c3)ccn12 [Cpd 195, 2-{3-[(3S)-3-cyclopropylpiperazin-1-yl]-1,2,4-triazin-6-yl}-5-(3-methylimidazo[1,5-a]pyridin-7-yl)phenol] |
| 33.7 |  | Cc1nnn2cc(-c3ccc(-c4cnc(N5C[C@@H](C)N[C@@H](C)C5)nn4)c(O)c3)ccc12 [Cpd 206, 2-{3-[rac-(3R,5S)-3,5-dimethylpiperazin-1-yl]-1,2,4-triazin-6-yl}-5-(3-methyl[1,2,3]triazolo[1,5-a]pyridin-6-yl)phenol] |
| 40.2 |  | Oc1cc(-c2cn[nH]c2F)cc(F)c1-c1cnc(N2CCNC(C3CC3)C2)nn1 (centres unmarked) [Cpd 32, 2-[3-(3-cyclopropylpiperazin-1-yl)-1,2,4-triazin-6-yl]-3-fluoro-5-(5-fluoro-1H-pyrazol-4-yl)phenol] |
| 14.1 |  | [2H]C([2H])([2H])Oc1cc(-c2ccc(-c3cnc(N4CCN[C@@H](C(C)(C)C)C4)nn3)c(O)c2)ncn1 [Cpd 17, 2-{3-[(3S)-3-tert-butylpiperazin-1-yl]-1,2,4-triazin-6-yl}-5-{6-[(^2H3)methyloxy]pyrimidin-4-yl}phenol] |
